Data as given in ChEMBL document CHEMBL1139645, “Action of a novel pyrrolo[1,2-c][1.3]benzodiazepine on the viability of Jurkat and neuronal/glial cells” (2005).

Key:
[1] = Effect of compound on cell viability in non-transformed neuronal/glial cells measured as percent reduction of MTT at 570 nm O.D. and exposure to 100 uM NMDA; Control value 0.56 %; assay type: functional, Rattus norvegicus
[2] = system: Jurkat; test: Effect of compound on cell viability in human leukemic Jurkat cells measured as percent reduction of MTT at 570 nm O.D.; Control value 0.47 %; assay type: functional
[3] = Effect of compound on cell viability in non-transformed neuronal/glial cells measured as percent reduction of MTT at […] O.D.; Control value 0.56 %; assay type: functional, Rattus norvegicus
[4] = Effect of compound on cell viability in non-transformed neuronal/glial cells measured as percent reduction of MTT at 570 nm O.D. at 100 uM; Control value 0.56 %; assay type: functional, Rattus norvegicus

| Compound | MTT reduction [1] | MTT reduction [2] | MTT reduction [3] | MTT reduction [4] |
| --- | --- | --- | --- | --- |
| Nc1ccccc1C(=O)c1ccc[nH]1 | 0.3 O.D | 0.39 O.D | 0.65 O.D | – |
| SC1=Nc2ccccc2Cc2cccn21 | 0.17 O.D | 0.22 O.D | 0.58 O.D | – |
| O=c1c2ccccc2nc(S)n2cccc12 | 0.28 O.D | 0.41 O.D | 0.62 O.D | – |
| Oc1c2nccc-2c(S)nc2ccccc12 | 0.25 O.D | 0.45 O.D | 0.55 O.D | – |
| Nc1ccccc1Cc1ccc[nH]1 | 0.22 O.D | 0.34 O.D | 0.38 O.D | – |
| CN[C@H](CC(=O)O)C(=O)O [N-METHYL-D-ASPARTIC ACID (NMDA)] | – | – | – | 0.29 O.D |
